PubChem BioAssay (NCI)
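All cell lines were grown in 96-well plates and treated with compound for 48 hours. TGI denotes the concentration required for complete inhibition of growth.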

Columns and labels:
Assay in all cases: growth of human tumour cells (NCI), 48 h
786-0 renal = tested on: 786-0 renal
MOLT-4 leukemia = tested on: MOLT-4 leukemia
HL-60(TB) leukemia = tested on: HL-60(TB) leukemia
MDA-MB-435 = tested on: MDA-MB-435
NCI-H460 lung = tested on: NCI-H460 lung
IGROV1 ovarian = tested on: IGROV1 ovarian
NCI-H226 lung = tested on: NCI-H226 lung
SF-268 CNS = tested on: SF-268 CNS
U251 CNS = tested on: U251 CNS
BT-549 breast = tested on: BT-549 breast
HT29 colon = tested on: HT29 colon
DU-145 prostate = tested on: DU-145 prostate
SR leukemia = tested on: SR leukemia
SK-MEL-5 melanoma = tested on: SK-MEL-5 melanoma
PC-3 prostate = tested on: PC-3 prostate
HOP-62 NSCLC = tested on: HOP-62 NSCLC
RPMI-8226 leukemia = tested on: RPMI-8226 leukemia
SF-295 CNS = tested on: SF-295 CNS
MCF7 breast = tested on: MCF7 breast
SW-620 colon = tested on: SW-620 colon
EKVX NSCLC = tested on: EKVX NSCLC
SF-539 CNS = tested on: SF-539 CNS
OVCAR-5 ovarian = tested on: OVCAR-5 ovarian
UACC-62 melanoma = tested on: UACC-62 melanoma
UO-31 renal = tested on: UO-31 renal
MDA-MB-231 breast = tested on: MDA-MB-231 breast
COLO 205 colon = tested on: COLO 205 colon
HOP-92 NSCLC = tested on: HOP-92 NSCLC
HS 578T breast = tested on: HS 578T breast
M14 melanoma = tested on: M14 melanoma
OVCAR-8 ovarian = tested on: OVCAR-8 ovarian
KM12 colon = tested on: KM12 colon
NCI-H522 lung = tested on: NCI-H522 lung
SNB-19 CNS = tested on: SNB-19 CNS
LOX IMVI melanoma = tested on: LOX IMVI melanoma
UACC-257 melanoma = tested on: UACC-257 melanoma
OVCAR-3 ovarian = tested on: OVCAR-3 ovarian
TK-10 renal = tested on: TK-10 renal
A549 NSCLC = tested on: A549 NSCLC
NCI/ADR-RES ovarian = tested on: NCI/ADR-RES ovarian
SN12C renal = tested on: SN12C renal
T-47D breast = tested on: T-47D breast
K-562 leukemia = tested on: K-562 leukemia
HCT-116 colon = tested on: HCT-116 colon
SK-MEL-28 melanoma = tested on: SK-MEL-28 melanoma
SK-MEL-2 melanoma = tested on: SK-MEL-2 melanoma
CCRF-CEM leukemia = tested on: CCRF-CEM leukemia
SK-OV-3 ovarian = tested on: SK-OV-3 ovarian
CAKI-1 renal = tested on: CAKI-1 renal
NCI-H23 lung = tested on: NCI-H23 lung
SNB-75 CNS = tested on: SNB-75 CNS
HCT-15 colon = tested on: HCT-15 colon
A498 renal = tested on: A498 renal
OVCAR-4 ovarian = tested on: OVCAR-4 ovarian
ACHN renal = tested on: ACHN renal
RXF 393 renal = tested on: RXF 393 renal
MALME-3M melanoma = tested on: MALME-3M melanoma
HCC-2998 colon = tested on: HCC-2998 colon

## COc1nc(N)nc2c1ncn2C1CC(O)C(CO)O1 (stereo not given)
786-0 renal
  TGI: > 100 µM
MOLT-4 leukemia
  TGI: > 100 µM
HL-60(TB) leukemia
  TGI: > 100 µM
MDA-MB-435
  TGI: > 100 µM
NCI-H460 lung
  TGI: > 100 µM
IGROV1 ovarian
  TGI: > 100 µM
NCI-H226 lung
  TGI: > 100 µM
SF-268 CNS
  TGI: > 100 µM
U251 CNS
  TGI: > 100 µM
BT-549 breast
  TGI: > 100 µM
HT29 colon
  TGI: > 100 µM
DU-145 prostate
  TGI: > 100 µM
SR leukemia
  TGI: > 100 µM
SK-MEL-5 melanoma
  TGI: > 100 µM
PC-3 prostate
  TGI: > 100 µM
HOP-62 NSCLC
  TGI: > 100 µM
RPMI-8226 leukemia
  TGI: > 100 µM
SF-295 CNS
  TGI: > 100 µM
MCF7 breast
  TGI: > 100 µM
SW-620 colon
  TGI: > 100 µM
EKVX NSCLC
  TGI: > 100 µM
SF-539 CNS
  TGI: > 100 µM
OVCAR-5 ovarian
  TGI: > 100 µM
UACC-62 melanoma
  TGI: > 100 µM
UO-31 renal
  TGI: > 100 µM
MDA-MB-231 breast
  TGI: > 100 µM
COLO 205 colon
  TGI: > 100 µM
HOP-92 NSCLC
  TGI: > 100 µM
HS 578T breast
  TGI: > 100 µM
M14 melanoma
  TGI: > 100 µM
OVCAR-8 ovarian
  TGI: > 100 µM
KM12 colon
  TGI: > 100 µM
NCI-H522 lung
  TGI: > 100 µM
SNB-19 CNS
  TGI: > 100 µM
LOX IMVI melanoma
  TGI: > 100 µM
UACC-257 melanoma
  TGI: > 100 µM
OVCAR-3 ovarian
  TGI: > 100 µM
TK-10 renal
  TGI: > 100 µM
A549 NSCLC
  TGI: > 100 µM
NCI/ADR-RES ovarian
  TGI: > 100 µM
SN12C renal
  TGI: > 100 µM
T-47D breast
  TGI: > 100 µM
K-562 leukemia
  TGI: > 100 µM
HCT-116 colon
  TGI: > 100 µM
SK-MEL-28 melanoma
  TGI: > 100 µM
SK-MEL-2 melanoma
  TGI: > 100 µM
CCRF-CEM leukemia
  TGI: > 100 µM
SK-OV-3 ovarian
  TGI: > 100 µM
CAKI-1 renal
  TGI: > 100 µM
NCI-H23 lung
  TGI: > 100 µM
SNB-75 CNS
  TGI: > 100 µM
HCT-15 colon
  TGI: > 100 µM
A498 renal
  TGI: > 100 µM
OVCAR-4 ovarian
  TGI: > 100 µM
ACHN renal
  TGI: > 100 µM
RXF 393 renal
  TGI: > 100 µM
MALME-3M melanoma
  TGI: > 100 µM

## Cc1ccc2nc3ccccc3c(C3C4C(=O)N(c5ccc(F)cc5)C(=O)C4ON3C(C(N)=O)c3ccccc3)c2c1 (stereo not given)
786-0 renal
  TGI: > 100 µM
MOLT-4 leukemia
  TGI: > 100 µM
HL-60(TB) leukemia
  TGI: > 100 µM
MDA-MB-435
  TGI: 99 µM
NCI-H460 lung
  TGI: > 100 µM
IGROV1 ovarian
  TGI: > 100 µM
NCI-H226 lung
  TGI: > 100 µM
SF-268 CNS
  TGI: > 100 µM
U251 CNS
  TGI: > 100 µM
BT-549 breast
  TGI: > 100 µM
HT29 colon
  TGI: > 100 µM
DU-145 prostate
  TGI: > 100 µM
SR leukemia
  TGI: > 100 µM
PC-3 prostate
  TGI: > 100 µM
HOP-62 NSCLC
  TGI: > 100 µM
RPMI-8226 leukemia
  TGI: 77.6 µM
SF-295 CNS
  TGI: > 100 µM
MCF7 breast
  TGI: 80.8 µM
SW-620 colon
  TGI: > 100 µM
EKVX NSCLC
  TGI: > 100 µM
SF-539 CNS
  TGI: 72.1 µM
OVCAR-5 ovarian
  TGI: > 100 µM
UACC-62 melanoma
  TGI: > 100 µM
UO-31 renal
  TGI: > 100 µM
MDA-MB-231 breast
  TGI: > 100 µM
COLO 205 colon
  TGI: 35.7 µM
HOP-92 NSCLC
  TGI: > 100 µM
HS 578T breast
  TGI: > 100 µM
M14 melanoma
  TGI: > 100 µM
OVCAR-8 ovarian
  TGI: > 100 µM
KM12 colon
  TGI: > 100 µM
NCI-H522 lung
  TGI: 57.8 µM
SNB-19 CNS
  TGI: > 100 µM
LOX IMVI melanoma
  TGI: > 100 µM
UACC-257 melanoma
  TGI: > 100 µM
OVCAR-3 ovarian
  TGI: 71.6 µM
TK-10 renal
  TGI: > 100 µM
A549 NSCLC
  TGI: > 100 µM
NCI/ADR-RES ovarian
  TGI: 90.2 µM
SN12C renal
  TGI: > 100 µM
T-47D breast
  TGI: > 100 µM
K-562 leukemia
  TGI: > 100 µM
HCT-116 colon
  TGI: > 100 µM
SK-MEL-28 melanoma
  TGI: > 100 µM
SK-MEL-2 melanoma
  TGI: > 100 µM
CCRF-CEM leukemia
  TGI: > 100 µM
SK-OV-3 ovarian
  TGI: > 100 µM
CAKI-1 renal
  TGI: > 100 µM
NCI-H23 lung
  TGI: > 100 µM
SNB-75 CNS
  TGI: > 100 µM
HCT-15 colon
  TGI: > 100 µM
A498 renal
  TGI: > 100 µM
OVCAR-4 ovarian
  TGI: > 100 µM
ACHN renal
  TGI: > 100 µM
RXF 393 renal
  TGI: > 100 µM
MALME-3M melanoma
  TGI: 80.7 µM

## CC1=CCC2CC1C(C(=O)c1c[nH]c3ccccc13)=NC2(C)C (stereo not given)
786-0 renal
  TGI: > 100 µM
MOLT-4 leukemia
  TGI: > 100 µM
HL-60(TB) leukemia
  TGI: > 100 µM
MDA-MB-435
  TGI: > 100 µM
NCI-H460 lung
  TGI: > 100 µM
IGROV1 ovarian
  TGI: > 100 µM
NCI-H226 lung
  TGI: > 100 µM
SF-268 CNS
  TGI: > 100 µM
U251 CNS
  TGI: > 100 µM
BT-549 breast
  TGI: > 100 µM
HT29 colon
  TGI: > 100 µM
DU-145 prostate
  TGI: > 100 µM
SR leukemia
  TGI: > 100 µM
SK-MEL-5 melanoma
  TGI: > 100 µM
HCC-2998 colon
  TGI: > 100 µM
PC-3 prostate
  TGI: > 100 µM
HOP-62 NSCLC
  TGI: > 100 µM
RPMI-8226 leukemia
  TGI: > 100 µM
MCF7 breast
  TGI: > 100 µM
SW-620 colon
  TGI: > 100 µM
EKVX NSCLC
  TGI: > 100 µM
SF-539 CNS
  TGI: > 100 µM
OVCAR-5 ovarian
  TGI: > 100 µM
UACC-62 melanoma
  TGI: > 100 µM
UO-31 renal
  TGI: > 100 µM
MDA-MB-231 breast
  TGI: > 100 µM
COLO 205 colon
  TGI: > 100 µM
HS 578T breast
  TGI: > 100 µM
M14 melanoma
  TGI: > 100 µM
OVCAR-8 ovarian
  TGI: > 100 µM
KM12 colon
  TGI: > 100 µM
NCI-H522 lung
  TGI: > 100 µM
SNB-19 CNS
  TGI: > 100 µM
LOX IMVI melanoma
  TGI: > 100 µM
UACC-257 melanoma
  TGI: 93.4 µM
OVCAR-3 ovarian
  TGI: > 100 µM
A549 NSCLC
  TGI: > 100 µM
NCI/ADR-RES ovarian
  TGI: > 100 µM
SN12C renal
  TGI: > 100 µM
T-47D breast
  TGI: 99.2 µM
K-562 leukemia
  TGI: > 100 µM
HCT-116 colon
  TGI: > 100 µM
SK-MEL-28 melanoma
  TGI: > 100 µM
CCRF-CEM leukemia
  TGI: > 100 µM
SK-OV-3 ovarian
  TGI: > 100 µM
CAKI-1 renal
  TGI: > 100 µM
NCI-H23 lung
  TGI: > 100 µM
HCT-15 colon
  TGI: > 100 µM
A498 renal
  TGI: > 100 µM
OVCAR-4 ovarian
  TGI: > 100 µM
ACHN renal
  TGI: > 100 µM
MALME-3M melanoma
  TGI: > 100 µM
